We go through 14 compounds from patent US10300067B2, “Tetrahydropyridopyrimidine compound or salt thereof” (TAIHO PHARMACEUTICAL CO., LTD., priority 2014, dated 2019).

As a reminder, the GI50 is the concentration at which growth is held to half of that of the control. For orientation: pIC50 means −log10 of the IC50, conventionally taken in molar units.

pIC50: −log10 of the molar value.

What all share (type): cell-based
In assay [1] the test system is Human prostate cancer cells LNCaP. Put plainly: Androgen-dependent inhibitory activity on proliferation of prostate cancer cells. The note with it: 50% proliferation inhibition concentration, DHT 10 nmol/L, 72 hours, read-out: GI50 value. As to the method: Human prostate cancer cells LNCaP (Non-Patent Literature 5) having […] androgen receptor gene were seeded in a clear bottom 96 well microplate (BD) at 4.0×10^3/well with phenol red free RPMI1640 containing 5% DCC-FBS (hereinbelow, the medium is referred to as an evaluation medium), and then cultured overnight. The culture was added with the evaluation medium containing DHT (final concentration of DHT: 10 nmol/L) or the evaluation medium containing the compound of Examples or the compound of Comparative Examples (final concentration of the compound of Examples or the compound of Comparative Examples: 10, 30, 100, 300, 1000, 3000, 10000, or 30000 nmol/L), followed by culture for 72 hours. Then, the number of viable cells was counted. The number of viable cells was measured by using Cell Counting Kit-8 (DOJINDO LABORATORIES).

The next assay addresses human androgen receptor (Homo sapiens (Human), UniProt P10275). In words: Antagonist activity for AR (pMMTV-luc reporter transcription activity in transfected COS-7 cells, DHT 1 nmol/L). Particulars: 50% transcription activity inhibition concentration; COS-7 cells with pMMTV-luc and pEX-hAR, DHT 1 nmol/L, 24 hours. The procedure, abridged:
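COS-7 cells co-transfected with pMMTV-luc reporter and CMV-driven human AR expression vector, cultured overnight in phenol red-free RPMI1640 with 10% charcoal-treated FBS. Antagonism measured against 1 nmol/L DHT by luciferase transcription activity.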

In assay [2] the test system is AR positive human prostate cancer cells VCaP. Put plainly: Agonist activity for AR (cell proliferation rate of VCaP cells). The note with it: 72 hours, 2 to 10000 nmol/L, more than 10% at any concentration = agonist activity for AR. The protocol: AR positive human prostate cancer cells VCaP (In Vivo 15:163-168, 2001) were seeded in a clear bottom 96 well microplate (BD) at 1.5×10^4/well with phenol red free RPMI1640 containing 5% DCC-FBS (hereinbelow, the medium is referred to as an evaluation medium), and then cultured overnight. The culture was added with the evaluation medium containing the compound of Examples or the compound of Comparative Examples (final concentration of the compound of Examples or the compound of Comparative Examples: 2, 5, 14, 41, 123, 370, 1111, 3333, or 10000 nmol/L), followed by culture for 72 hours. Then, the number of viable cells was counted (test group). As a control, the cells were cultured after being added with the evaluation medium only, and the number of viable cells was counted (control group). The number of viable cells was measured by using CellTiter-Glo™ Luminescent Cell Viability Assay (Promega). From the measured number of viable cells, cell proliferation rate with respect to the compound of Examples or the compound of Comparative Examples was calculated based on the number of viable cells measured in the case of using the evaluation medium only. Cell proliferation rate (%) =(Number of viable cells in test group−Number of viable cells in control group)/(Number of viable cells in control group)×100
By considering an error in the number of viable cells measured in the case of using the evaluation medium only, when the cell proliferation rate was more than 10% at any concentration of the 9 concentrations which had been evaluated, it was determined to have an agonist activity for AR.

The target of another assay is androgen receptor (Homo sapiens (Human), UniProt P10275, T878A). Put plainly: Activity of reducing expression level of androgen receptor (Western blotting of LNCaP cell lysate). Particulars: 48 hours. The protocol: AR positive human prostate cancer cells LNCaP were seeded in a clear bottom 6 well microplate (BD) at 3.5×10^5/well with phenol red free RPMI1640 containing 5% FBS (hereinbelow, the medium is referred to as an evaluation medium), and then cultured overnight. The culture was added with the evaluation medium containing the compound of Examples or the compound of Comparative Examples such that the final concentration of the compound of Examples or the compound of Comparative Examples was 10000 nmol/L, followed by culture for 48 hours. After culture for 48 hours, the medium was removed and the cells were washed with PBS and added with 0.1 mL of Lysis buffer (M-PER added with Protease Inhibitor Cocktail), followed by keeping at 4° C. for 20 minutes. After cell lysis, the cell solution was centrifuged to recover the supernatant as cell lysate. […] The antibody-reacting band (anti AR receptor) was quantified by LAS-3000 (FUJIFILM) using Super Signal West Pico Substrate (Thermo Scientific) as a detection reagent.
Sequence of androgen receptor (P10275 whole entry T878A): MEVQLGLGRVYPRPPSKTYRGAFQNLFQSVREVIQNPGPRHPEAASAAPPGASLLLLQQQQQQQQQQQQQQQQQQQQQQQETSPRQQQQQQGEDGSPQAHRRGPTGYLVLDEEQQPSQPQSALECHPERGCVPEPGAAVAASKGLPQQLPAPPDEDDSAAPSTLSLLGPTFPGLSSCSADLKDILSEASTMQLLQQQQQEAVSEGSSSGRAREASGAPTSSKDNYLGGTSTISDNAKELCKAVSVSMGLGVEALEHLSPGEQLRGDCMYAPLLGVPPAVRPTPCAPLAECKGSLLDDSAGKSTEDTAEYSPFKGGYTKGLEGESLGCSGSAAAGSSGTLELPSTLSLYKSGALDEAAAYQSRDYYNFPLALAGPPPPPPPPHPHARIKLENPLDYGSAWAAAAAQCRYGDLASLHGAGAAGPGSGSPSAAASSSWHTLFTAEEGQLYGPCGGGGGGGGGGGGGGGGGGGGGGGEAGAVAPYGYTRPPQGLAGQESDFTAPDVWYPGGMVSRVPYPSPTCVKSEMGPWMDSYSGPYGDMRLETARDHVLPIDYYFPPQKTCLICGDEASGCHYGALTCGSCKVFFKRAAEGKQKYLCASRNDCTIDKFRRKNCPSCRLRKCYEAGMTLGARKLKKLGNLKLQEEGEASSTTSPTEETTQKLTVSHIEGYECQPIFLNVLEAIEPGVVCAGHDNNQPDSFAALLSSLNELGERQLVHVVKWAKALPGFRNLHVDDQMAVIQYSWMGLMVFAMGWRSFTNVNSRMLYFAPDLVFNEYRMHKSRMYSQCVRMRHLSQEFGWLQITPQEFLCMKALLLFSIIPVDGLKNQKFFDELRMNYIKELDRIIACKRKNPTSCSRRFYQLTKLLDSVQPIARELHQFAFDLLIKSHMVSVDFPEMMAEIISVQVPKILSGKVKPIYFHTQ

Sequence of human androgen receptor (P10275 whole entry): as the sequence (P10275 whole entry T878A) above, with A878T counted along it

For the compound `CC(C)(COc1ccc(Nc2ncnc3c2CCN(c2ccc(C#N)c(C(F)(F)F)c2)C3)cn1)n1cnnn1` [Example 16, 4-(4-((6-(2-methyl-2-(1H-tetrazol-1-yl)propoxy)pyridin-3-yl)amino)-5,6-dihydropyrido[3,4-d]pyrimidin-7(8H)-yl)-2-(trifluoromethyl)benzonitrile], the GI50 in assay [1] was determined as 0.7 µM. For the same compound, the pIC50 against human androgen receptor was 6.68. In addition, the “Cell proliferation rate (%)” value in assay [2] is given as −1.5%. Moreover, the “10 μM AR expression reducing activity” value on androgen receptor is “reduced (When the AR expression reducing activity is 50% or more, it is described as “reduced”)”.
In the case of `Cn1nccc1CCOc1ccc(Nc2ncnc3c2CCN(c2ccc(C#N)c(C(F)(F)F)c2)C3)cc1` [Example 14, 4-(4-((4-(2-(1-Methyl-1H-pyrazol-5-yl)ethoxy)phenyl)amino)-5,6-dihydropyrido[3,4-d]pyrimidin-7(8H)-yl)-2-(trifluoromethyl)benzonitrile], in assay [1], the GI50 is 1.4 µM. For the same compound, at human androgen receptor, the pIC50 is 6.52. Also, the “10 μM AR expression reducing activity” value on androgen receptor is “reduced (When the AR expression reducing activity is 50% or more, it is described as “reduced”)”.
With `CC(C)(O)CNC(=O)c1cnc(Nc2ncnc3c2CCN(c2ccc(C#N)c(C(F)(F)F)c2)C3)nc1` [Example 34, 2-((7-(4-cyano-3-(trifluoromethyl)phenyl)-5,6,7,8-tetrahydropyrido[3,4-d]pyrimidin-4-yl)amino)-N-(2-hydroxy-2-methylpropyl)pyrimidine-5-carboxamide], in assay [1], the GI50 came to 3.8 µM. Also, on human androgen receptor, the negative logarithm of the IC50 (pIC50) was 6.15. Further, the “Cell proliferation rate (%)” value in assay [2] was found to be 6.4%. In addition, the “10 μM AR expression reducing activity” value on androgen receptor is given as “reduced (When the AR expression reducing activity is 50% or more, it is described as “reduced”)”.
Turning to `CC(C)(O)CNC(=O)c1ccc(Nc2ncnc3c2CCN(c2ccc(C#N)c(C(F)(F)F)c2)C3)nn1` [Example 32, 6-((7-(4-cyano-3-(trifluoromethyl)phenyl)-5,6,7,8-tetrahydropyrido[3,4-d]pyrimidin-4-yl)amino)-N-(2-hydroxy-2-methylpropyl)pyridazine-3-carboxamide], in assay [1], the GI50 worked out at 3.1 µM. The pIC50 on human androgen receptor is 7.22. Moreover, the “Cell proliferation rate (%)” value in assay [2] was −2.2%. Besides, at androgen receptor, the “10 μM AR expression reducing activity” value is recorded as “reduced (When the AR expression reducing activity is 50% or more, it is described as “reduced”)”.
Turning to `CC(C)Oc1ccc(Nc2ncnc3c2CCN(c2ccc(C#N)c(C(F)(F)F)c2)C3)cc1` [Example 2, 4-(4-((4-isopropoxyphenyl)amino)-5,6-dihydropyrido[3,4-d]pyrimidin-7(8H)-yl)-2-(trifluoromethyl)benzonitrile], in assay [1], the GI50 worked out at 1 µM. For the same compound, the pIC50 against human androgen receptor was 6.43. Further, in assay [2], the “Cell proliferation rate (%)” value is 3.8%. Further, the “10 μM AR expression reducing activity” value on androgen receptor was “reduced (When the AR expression reducing activity is 50% or more, it is described as “reduced”)”.
Take `CS(=O)(=O)N1CCN(CCCOc2ccc(Nc3ncnc4c3CCN(c3ccc(C#N)c(C(F)(F)F)c3)C4)cc2)CC1` [Example 18, 4-(4-((4-(3-(4-(methylsulfonyl)piperazin-1-yl)propoxy)phenyl)amino)-5,6-dihydropyrido[3,4-d]pyrimidin-7(8H)-yl)-2-(trifluoromethyl)benzonitrile]: the GI50 in assay [1] was 1.9 µM. On human androgen receptor, the pIC50 is 6.44. For the same compound, the “Cell proliferation rate (%)” value in assay [2] was −4.6%. The “10 μM AR expression reducing activity” value on androgen receptor is recorded as “reduced (When the AR expression reducing activity is 50% or more, it is described as “reduced”)”.
On to `N#Cc1ccc(N2CCc3c(ncnc3Nc3ccc(C(=O)NCC4(O)CC4)nn3)C2)cc1C(F)(F)F` [Example 30, 6-((7-(4-Cyano-3-(trifluoromethyl)phenyl)-5,6,7,8-tetrahydropyrido[3,4-d]pyrimidin-4-yl)amino)-N-((1-hydroxycyclopropyl)methyl)pyridazine-3-carboxamide], for which the GI50 in assay [1] turned out to be 3.2 µM. In addition, the “10 μM AR expression reducing activity” value at androgen receptor is recorded as “reduced (When the AR expression reducing activity is 50% or more, it is described as “reduced”)”.
Consider `N#Cc1ccc(N2CCc3c(ncnc3Nc3ccc(C(=O)NCC(F)(F)F)nn3)C2)cc1C(F)(F)F` [Example 24, 6-((7-(4-Cyano-3-(trifluoromethyl)phenyl)-5,6,7,8-tetrahydropyrido[3,4-d]pyrimidin-4-yl)amino)-N-(2,2,2-trifluoroethyl)pyridazine-3-carboxamide], for which, in assay [1], the GI50 worked out at 3.5 µM. Besides, the pIC50 on human androgen receptor is 7.15. On androgen receptor, the “10 μM AR expression reducing activity” value is listed as “reduced (When the AR expression reducing activity is 50% or more, it is described as “reduced”)”.
Consider `Cn1nccc1CCNC(=O)c1nnc(Nc2ncnc3c2CCN(c2ccc(C#N)c(C(F)(F)F)c2)C3)s1` [Example 35, 5-((7-(4-Cano-3-(trifluoromethyl)phenyl)-5,6,7,8-tetrahydropyrido[3,4-d]pyrimidin-4-yl)amino)-N-(2-(1-methyl-1H-pyrazol-5-yl)ethyl)-1,3,4-thiadiazol-2-carboxamide], for which the GI50 in assay [1] stood at 1.6 µM. The same compound had a pIC50 against human androgen receptor of 6.72. Further, the “Cell proliferation rate (%)” value in assay [2] is recorded as 0.1%.
With `N#Cc1ccc(N2CCc3c(ncnc3Nc3ccc(NC(=O)CC(F)(F)F)cn3)C2)cc1C(F)(F)F` [Example 23, N-(6-((7-(4-Cano-3-(trifluoromethyl)phenyl)-5,6,7,8-tetrahydropyrido[3,4-d]pyrimidin-4-yl)amino)pyridin-3-yl)-3,3,3-trifluoropropanamide], in assay [1], the GI50 is 1.5 µM. At human androgen receptor, this compound gave a pIC50 of 6.10. Also, the “Cell proliferation rate (%)” value in assay [2] is on record as 5.1%.
For the compound `N#Cc1ccc(N2CCc3c(ncnc3Nc3ccc(C(=O)NCC(F)F)nn3)C2)cc1C(F)(F)F` [Example 28, 6-((7-(4-Cyano-3-(trifluoromethyl)phenyl)-5,6,7,8-tetrahydropyrido[3,4-d]pyrimidin-4-yl)amino)-N-(2,2-difluoroethyl)pyridazine-3-carboxamide], the GI50 in assay [1] was found to be 3.2 µM. The compound also showed a pIC50 against human androgen receptor of 7.70. In addition, on androgen receptor, the “10 μM AR expression reducing activity” value is given as “reduced (When the AR expression reducing activity is 50% or more, it is described as “reduced”)”.
`CC(C)(O)CNC(=O)c1cnc(Nc2ncnc3c2CCN(c2ccc(C#N)c(C(F)(F)F)c2)C3)cn1` [Example 33, 5-((7-(4-Cyano-3-(trifluoromethyl)phenyl)-5,6,7,8-tetrahydropyrido[3,4-d]pyrimidin-4-yl)amino)-N-(2-hydroxy-2-methylpropyl)pyrazine-2-carboxamide]: the GI50 in assay [1] was found to be 2.1 µM. This compound also showed a negative logarithm of the IC50 (pIC50) on human androgen receptor of 6.51. The “Cell proliferation rate (%)” value in assay [2] is recorded as 4.4%.
Take `CC(C)(O)C1CCN(C(=O)c2coc(Nc3ncnc4c3CCN(c3ccc(C#N)c(C(F)(F)F)c3)C4)n2)CC1` [Example 41, 4-(4-((4-(4-(2-Hydroxypropan-2-yl)piperidin-1-carbonyl)oxazol-2-yl)amino)-5,6-dihydropyrido[3,4-d]pyrimidin-7(8H)-yl)-2-(trifluoromethyl)benzonitrile]: the GI50 in assay [1] was 2.4 µM. On human androgen receptor, this compound gave a pIC50 of 5.71. Besides, the “10 μM AR expression reducing activity” value on androgen receptor is “reduced (When the AR expression reducing activity is 50% or more, it is described as “reduced”)”.
Turning to `N#Cc1ccc(N2CCc3c(ncnc3Nc3ccc(C(=O)NCC(F)F)cn3)C2)cc1C(F)(F)F` [Example 27, 6-((7-(4-Cyano-3-(trifluoromethyl)phenyl)-5,6,7,8-tetrahydropyrido[3,4-d]pyrimidin-4-yl)amino)-N-(2,2-difluoroethyl)nicotinamide], the 50% growth inhibitory concentration (GI50) in assay [1] worked out at 2.8 µM. The same compound had a pIC50 against human androgen receptor of 7.05. The “Cell proliferation rate (%)” value in assay [2] is −0.2%.
